The values below are quoted from earlier work in patent US20120122237A1, “HOMOGENEOUS NONCOMPETITIVE DETECTION OF POST TRANSLATIONAL MODIFICATIONS FOR USE IN HIGH THROUGHPUT ASSAYS” (priority 2010, published 2012).

In data set [1] the test system is Polyclonal antibody for 3-PBA.
Data set [2] concerns Polyclonal antibody for 3-PBA. The conditions noted are these: competitive ELISA.
Data set [3] has as its system Monoclonal Antibody for Atrazine.
For data set [4] the test system is unchanged. The conditions noted are these: competitive ELISA. Background: ELISA stands for enzyme-linked immunosorbent assay.

Turning to `O=Cc1cccc(Oc2ccccc2)c1` [3-pheonoxy aldehyde], the “Crossreactivity (%) PHAIA” value in data set [1] is 3%. Besides, in data set [2], the “Crossreactivity (%) ELISA” value is 10%.
As for `CCNc1nc(Cl)nc(NC(C)(C)C#N)n1` [cyanazine], the “Crossreactivity (%) PHAIA” value in data set [3] is on record as 0%. Further, the “Crossreactivity (%) ELISA” value in data set [4] is given as 91%.
Consider 4-hydroxy 3-PBA, for which, in data set [1], the “Crossreactivity (%) PHAIA” value is given as 0%. Moreover, the “Crossreactivity (%) ELISA” value in data set [2] is listed as 98%.
In the case of `O=C(O)c1cccc(Oc2ccccc2)c1` [3-PBA, 3-phenoxybenzoic acid], in data set [1], the “Crossreactivity (%) PHAIA” value was 100%. Further, in data set [2], the “Crossreactivity (%) ELISA” value is on record as 100%.
`CC(C)Nc1nc(Cl)nc(NC(C)C)n1` [propazine]: the “Crossreactivity (%) PHAIA” value in data set [3] is listed as 144%. Besides, the “Crossreactivity (%) ELISA” value in data set [4] was 116%.
`CCNc1nc(Cl)nc(NC(C)C)n1` [atrazine]: the “Crossreactivity (%) PHAIA” value in data set [3] was 100%. Besides, the “Crossreactivity (%) ELISA” value in data set [4] is 100%.
With `CCNc1nc(Cl)nc(NCC)n1` [simazine], the “Crossreactivity (%) PHAIA” value in data set [3] is reported as 0%. For the same compound, the “Crossreactivity (%) ELISA” value in data set [4] is 48%.
